Laboratory results published in EP0626943B1, “BISTRIAZENES AS CHEMOTHERAPEUTIC AGENTS” (THE GOVERNMENT OF THE UNITED STATES OF AMERICA as …, priority 1991, dated 1993).
Like-named read-outs stand apart in the source and are kept apart here.

Experiments:
[1] = tested on: 32P-endlabeled oligonucleotide; experiment: Oligonucleotide crosslinking assay; assay type: biochemical; settings: 37°C, 42 hours, pH 7.4
Experimental: A solution of 6.2 ng of ^32P-endlabeled oligonucleotide in 0.1 M cacodylic acid buffer (0.1 M NaCl, pH 7.4) was allowed to react with the desired compound dissolved in 1/10 volume DMSO. Final concentrations of the compounds in the oligonucleotide solution were 0.1 mM NMUST, 1.0 mM CCNU, or 10 mM bistriazene. Reactions were incubated at 37°C for 42 hours, and analyzed by denaturing polyacrylamide gel electrophoresis (20% gel) followed by autoradiography. the gels were intentionally overexposed to better visualize bands corresponding to interstrand crosslinks. Large amounts of unreacted oligonucleotides were also visualized under these conditions.

human tumor cell lines = experiment: Clonogenic assay against a panel of human tumor cells (Figures 1-4); assay type: cell-based; settings: for cytotoxicity, overall statement: clonogenic assay, no concentration given
Experimental: Clonogenic Assay. The response of a variety of human tumor cell lines to bistriazenes was determined via the clonogenic assay described in Fiebig et al. (1987) European Journal of Cancer and Clinical Oncology 23: 937-948.
(§1) Briefly, the assay system consists of a modified, two-layer soft agar culture system. The bottom layer consists of 1 ml of modified Dulbecco medium supplemented with L-glutamine, containing 10% fetal calf serum and 0.5% agar, in a 35 mm petri-dish. The upper layer contains 2-5 x 10^5 viable human tumor cells suspended in a 1 ml volume, consisting of 0.3% agar, 30% fetal calf serum, and the medium. The drugs to be tested, contained in 1 ml of medium containing 30% fetal calf serum, are included in the upper layer. Control plates are identical, except for the omission of the drugs. The plates are incubated at 37°C in a humidified atmosphere containing 7% carbon dioxide for varying periods (7-21 days). The time in culture is determined by the rate of colony formation in the control plates. At the end of the culture period, the number of colonies in the drug treated cultures is compared to the number of colonies in the control plates, after visualization of the live colonies by staining with tetrazolium chloride.
The tumors included those derived from colon cancer, three types of lung cancer, mammary cancer, ovarian cancer, two types of kidney cancer, a mesothelioma, a gastric cancer, and a sarcoma. These tumors represent some of the most important cancers for which current treatments are inadequate. For comparison, the assays of the various bistriazenes were compared to the response induced in the same tumors by DTIC, a drug employed in clinical practice.

PRCL DU145X = experiment: Clonogenic assay (two-layer soft agar culture); assay type: cell-based; settings: Homo sapiens, read-out: Test/Control (%) at Drug Concentration (µg/ml)
Experimental: as §1

LXFL 529 = experiment: Clonogenic assay (two-layer soft agar culture); assay type: cell-based; settings: Homo sapiens
Experimental: as §1

RXF 1220 = experiment: Clonogenic assay (two-layer soft agar culture); assay type: cell-based; settings: Homo sapiens, read-out: Test/Control (%) at Drug Concentration (µg/ml)
Experimental: as §1

[2] = Solubility observed on isolation; assay type: physicochemical
Experimental: A solution of 3.95 g (25 mmoles) of 2-bromopyridine in 20 ml of dry pentane was added dropwise to 10 ml. of 2.5M butylithium in hexane at -78°C. To the resulting yellow slurry was added dropwise with stirring 1.75 g (12.5 mmoles) of 1,4-diazidobutane in 10 ml. of pentane. Stirring was continued for 2 hr. at -78° and then the reaction mixture was allowed to warm to room temperature. The reaction mixture was treated with 60 ml. of ammonium buffer which caused a precipitate to appear after the reaction was cooled to -78°C. The solid was filtered off. […] The yield was 2.3 g., m.p. 133-136. Spectroscopic data were consistent with the structure.
A solution of butyllithium in hexane (5 ml., 2.5M) was dissolved in 10 ml. of tetrahydrofuran and cooled to -78°C. To this was added dropwise with stirring a solution of 1.98 g (12.5 mmoles) of 2-bromopyridine in 10 ml. of tetrahydrofuran. The dark yellow solution of the pyridine anion was mixed with a solution of 0.70 g (6.2 mmoles) of 1,2-diazidoethane in 10 ml. of tetrahydrofuran at -78°C. After 1 hr. of stirring the dark green solution was treated with 10 ml. of ammonium buffer. The color changed to yellow. The organic solvent was removed in vacuo, and the precipitate was isolated by filtration and washed with copious quantities of diethylether. The powdery material was finally dried under high vacuum. The yield was 770 mg. […] The spectra, however, were fully consistent with the structure.

[3] = 1 ug/ml, panel of human tumor cell lines
[4] = 10 ug/ml, panel of human tumor cell lines
[5] = 100 ug/ml, panel of human tumor cell lines
[6] = LXFL 529, read-out: Test/Control (%) at Drug Concentration (µg/ml)
[7] = 1.0 µg/ml, PRCL DU145X prostate carcinoma
[8] = 10.0 µg/ml, PRCL DU145X prostate carcinoma
[9] = 100.0 µg/ml, PRCL DU145X prostate carcinoma
[10] = 1.0 µg/ml, LXFL 529 large cell lung cancer line, read-out: Test/Control (%) at Drug Concentration (µg/ml)
[11] = 10.0 µg/ml, LXFL 529 large cell lung cancer line, read-out: Test/Control (%) at Drug Concentration (µg/ml)
[12] = 100.0 µg/ml, LXFL 529 large cell lung cancer line, read-out: Test/Control (%) at Drug Concentration (µg/ml)
[13] = 1.0 µg/ml, RXF 1220 renal carcinoma
[14] = 10.0 µg/ml, RXF 1220 renal carcinoma
[15] = 100.0 µg/ml, RXF 1220 renal carcinoma

Q: With `CNN=NC/C=C/CN=NNC` [1,4-bis(methyltriazeno)-trans-2-butene, 1,4-Bis(methyltriazeno)-trans-2-butene] as the compound, how does the “interstrand crosslinking of oligonucleotides” value (shortened to “interstrand crosslinking”) ([1]; 10 mM bistriazene) read?
A: produce stable crosslinked species in oligonucleotides

Q: And the cytotoxic activity (human tumor cell lines; [3])?
A: still significant activity against the lung cancer

Q: What about the cytotoxic activity (human tumor cell lines; [4]) of the same compound?
A: activity persisted at 10 ug/ml, especially for the large cell lung carcinoma LXFL529 and the renal cancer RXF423/17

Q: And the cytotoxic activity (human tumor cell lines; [5])?
A: potent cytotoxic activity against all the tumors tested

Q: What about the “cytotoxicity, overall statement” value (human tumor cell lines) of the same compound?
A: highly potent against several tumors, especially the large cell lung carcinoma

Q: Which “interstrand crosslinking” value ([1]; 1.0 mM CCNU) does the source give for `O=NN(CCCl)C(=O)NC1CCCCC1` [CCNU, 1-(2-chloroethyl)-3-cyclohexyl-1-nitrosourea, reference compound] here?
A: not as effective at forming crosslinks as the p-xylyl bistriazene derivative

Q: With `O=P1(N(CCCl)CCCl)NC(OO)CCO1` (stereo not shown) [CYCM, 4-hydroperoxycyclophosphamide, reference compound] as the compound, how does the activity at 1 µg/mL (PRCL DU145X) read?
A: 108%

Q: What about the activity at 10 µg/mL (PRCL DU145X) of the same compound?
A: 90%

Q: What about the activity at 100 µg/mL (PRCL DU145X) of the same compound?
A: 47%

Q: And the activity at 1 µg/mL (LXFL 529; [6])?
A: 115%

Q: And the activity at 10 µg/mL (LXFL 529; [6])?
A: 94%

Q: And the activity at 100 µg/mL (LXFL 529; [6])?
A: 19%

Q: And the activity at 1 µg/mL (RXF 1220)?
A: 67%

Q: And the activity at 10 µg/mL (RXF 1220)?
A: 51%

Q: What about the activity at 100 µg/mL (RXF 1220) of the same compound?
A: 9%

Q: Which results are given for `CN(C)N=Nc1[nH]cnc1C(N)=O` [DTIC, 5-(3,3-dimethyltriazeno)imidazole-4-carboxamide, reference compound]?
A: activity at 1 µg/mL (PRCL DU145X; [7]): 70%; activity at 10 µg/mL (PRCL DU145X; [8]): 44%; activity at 100 µg/mL (PRCL DU145X; [9]): 43%; activity at 1 µg/mL (LXFL 529; [10]): 63%; activity at 10 µg/mL (LXFL 529; [11]): 35%; activity at 100 µg/mL (LXFL 529; [12]): 8%; activity at 1 µg/mL (RXF 1220; [13]): 54%; activity at 10 µg/mL (RXF 1220; [14]): 44%; activity at 100 µg/mL (RXF 1220; [15]): 24%; cytotoxic activity (human tumor cell lines; 3 ug/ml, panel of human tumor cell lines): marginal activity against the gastric cancer; cytotoxic activity (human tumor cell lines; 30 ug/ml, panel of human tumor cell lines): activity against the gastric carcinoma GXF251/16 and the ovarian cancer OVXF899/9; cytotoxic activity (human tumor cell lines; 300 ug/ml, panel of human tumor cell lines): potently cytotoxic on all cell lines

Q: What does the source list for `c1cncc(N=NNCCNN=Nc2cccnc2)c1` [Example 1a, bis(3-pyridyltriazeno)ethane]?
A: activity at 1 µg/mL (PRCL DU145X; [7]): 84%; activity at 10 µg/mL (PRCL DU145X; [8]): 44%; activity at 100 µg/mL (PRCL DU145X; [9]): 0%; activity at 1 µg/mL (LXFL 529; [10]): 51%; activity at 10 µg/mL (LXFL 529; [11]): 0%; activity at 100 µg/mL (LXFL 529; [12]): 0%; activity at 1 µg/mL (RXF 1220; [13]): 99%; activity at 10 µg/mL (RXF 1220; [14]): 74%; activity at 100 µg/mL (RXF 1220; [15]): 4%; cytotoxicity, overall statement (human tumor cell lines): potently cytotoxic

Q: Which activity at 1 µg/mL (PRCL DU145X; [7]) does the source give for `c1cncc(N=NNCCCCNN=Nc2cccnc2)c1` [Example 1b] here?
A: 94%

Q: And the activity at 10 µg/mL (PRCL DU145X; [8])?
A: 62%

Q: And the activity at 100 µg/mL (PRCL DU145X; [9])?
A: 4%

Q: What about the activity at 1 µg/mL (LXFL 529; [10]) of the same compound?
A: 71%

Q: And the activity at 10 µg/mL (LXFL 529; [11])?
A: 1%

Q: And the activity at 100 µg/mL (LXFL 529; [12])?
A: 1%

Q: What about the activity at 1 µg/mL (RXF 1220; [13]) of the same compound?
A: 82%

Q: And the activity at 10 µg/mL (RXF 1220; [14])?
A: 70%

Q: And the activity at 100 µg/mL (RXF 1220; [15])?
A: 8%

Q: And the “cytotoxicity, overall statement” value (human tumor cell lines)?
A: potently cytotoxic

Q: With `CNN=NCc1ccc(CN=NNC)cc1` [bis(methyltriazeno)-p-xylene, 1,4-Bis(methyltriazenomethyl)benzene] as the compound, how does the “interstrand crosslinking” value ([1]; 10 mM bistriazene, listed as p-xylyl) read?
A: produce stable crosslinked species in oligonucleotides

Q: What about the “interstrand crosslinking” value ([1]; 10 mM bistriazene, listed as p-xylyl bistriazene) of the same compound?
A: stably covalently crosslinked

Q: What about the cytotoxic activity (human tumor cell lines; [3]) of the same compound?
A: Some activity was also evident at a dose of 1 ug/ml in about half the cell lines

Q: And the cytotoxic activity (human tumor cell lines; [4])?
A: toxicity against approximately half of the cell lines examined

Q: What about the cytotoxic activity (human tumor cell lines; [5]) of the same compound?
A: highly toxic to all tumor cell lines

Q: Which cytotoxic activity (human tumor cell lines; [4]) does the source give for `CNN=NCCN=NNC` [bis(methyltriazeno)ethane, 1,2-Bis(methyltriazeno)ethane] here?
A: only marginal, but significant, activity was seen in the large cell lung cancer and in the mammary cancer

Q: What about the cytotoxic activity (human tumor cell lines; 100 ug/ml, mesothelioma, gastric carcinoma, renal cancer RXF 423/17) of the same compound?
A: Relatively little or no activity

Q: And the cytotoxic activity (human tumor cell lines; [5])?
A: highly cytotoxic at 100 ug/ml to most of the tumor cell lines

Q: Which results are given for `c1ccc(NN=NCCCCN=NNc2ccccn2)nc1` [compound 14, 1,4-Bis(2-pyridyltriazeno)butane]?
A: solubility ([2]; common solvents): poorly soluble in common solvents such as halomethanes, acetone, methanol and water; solubility ([2]; dimethylsulfoxide): sparingly soluble

Q: For `c1ccc(NN=NCCN=NNc2ccccn2)nc1` [compound 15, 1,2-Bis(2-pyridyltriazeno)ethane], which solubility ([2]; common solvents) is on record?
A: not soluble in most solvents, except dimethylsulfoxide
